Our source for the IC50 values is patent US20060079453A1, “Hla binding peptides and their uses” (priority 2002, published 2006).

pIC50: −log10 of the molar value. Where two headings read alike, the source gives them in different places. No end group written: not given here.

Test in all cases: biochemical
Holding throughout (format): binding

Assay [1] concerns the target HLA-DR DRB1*1101 (DR11) (Homo sapiens, UniProt P01903+P01911, A100R/A169T/A87E/I96F/K41T/L162R/M171V/P40S/Q125H/Q178H/Q39Y/Q99D/R42S/S66Y/T262R/V115G/W38E).
The target of assay [2] is HLA-DR DRB5*0101 (DR51) (Homo sapiens, UniProt P01903+Q30154).
In assay [3] the target is HLA-DR DRB4*0101 (DR53) (Homo sapiens, UniProt P01903+P13762, G164S).
Assay [4] concerns the target HLA-DR DRB1*0301 (DR3) (Homo sapiens, UniProt P01903+P01911, A100K/A102G/A103R/A169T/F55Y/I96L/K41T/L162R/M171V/P40S/Q125H/Q178H/Q39Y/R42S/S66N/T106N/T262R/W38E/Y61H).
Assay [5] concerns the target HLA-DR DRB1*0101 (DR1) (Homo sapiens, UniProt P01903+P01911, A100R/D57E/F55L/F60I/F76Y/I96L/L162R/M171V/P40L/Q125E/R42F/V115G/Y59C).
In assay [6] the target is HLA-DR DRB1*1302 (DR13) (Homo sapiens, UniProt P01903+P01911, A100E/A169T/K41T/L162R/M171V/P40S/Q125H/Q178H/Q39Y/Q99D/R42S/S66N/T262R/V115G/W38E/Y61H).
Sequence of HLA-DR DRB1*1302 (DR13) (P01903 26-254 limits assumed, other chains not shown): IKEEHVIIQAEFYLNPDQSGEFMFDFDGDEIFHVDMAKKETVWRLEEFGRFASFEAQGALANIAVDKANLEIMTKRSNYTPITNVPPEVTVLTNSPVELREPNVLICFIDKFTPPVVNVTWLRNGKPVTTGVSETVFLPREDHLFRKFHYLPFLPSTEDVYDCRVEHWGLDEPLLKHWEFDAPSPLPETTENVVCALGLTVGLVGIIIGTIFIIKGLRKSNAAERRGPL
The target of assay [7] is HLA-DR DRB3*0101 (DR52) (Homo sapiens, UniProt P01903+P79483).
Assay [8] concerns the target HLA-DR DRB1*0701 (DR7) (Homo sapiens, UniProt P01903+P01911, A100R/A102G/A103Q/D57E/D86V/E43K/F76Y/K127E/L162R/M171V/P40G/Q125H/Q99D/R33Q/R42Y/R54Q/S133A/S66F/T210M/V115G/Y107V/Y59L/Y89S).
In assay [9] the target is HLA-DR DRB1*1501 (DR15) (Homo sapiens, UniProt P01903+P01911).
The target of assay [10] is HLA-DR DRB1*0401 (DR4) (Homo sapiens, UniProt P01903+P01911, A100K/A169T/F76Y/I96L/K127E/L162R/M171V/N62H/P40V/Q125Y/R42H/S133A/S149N/S66Y/V115G/V209L/W38E).
Assay [11] addresses HLA-DR DRB1*0405 (DR4) (Homo sapiens, UniProt P01903+P01911, A100R/A169T/D86S/F76Y/I96L/K127E/L162R/M171V/N62H/P40V/Q125Y/R42H/S133A/S149N/S66Y/V115G/V209L/W38E).
Assay [12] concerns the target HLA-DR DRB1*0802 (DR8) (Homo sapiens, UniProt P01903+P01911, A100R/A103L/A169T/F76Y/H45Y/I96F/K41T/L162R/M171V/P40S/Q125H/Q178H/Q39Y/Q99D/R218S/R42G/S66Y/V115G/W38E).
In assay [13] the target is HLA-DR DRB1*0901 (DR9) (Homo sapiens, UniProt P01903+P01911, A100R/A103E/D57H/D86V/F55Y/F60I/F76Y/I96F/K127E/L162R/M171V/P40D/Q125H/Q99R/R33Q/R42F/S133A/S66N/T210M/V115G/W38K/Y107V/Y59G/Y89S). The settings on record: DRB1 *0901.

Sequence of HLA-DR DRB1*1101 (DR11) (P01903 26-254 limits assumed, other chains not shown): as above
Sequence of HLA-DR DRB1*0301 (DR3) (P01903 26-254 limits assumed, other chains not shown): as above

Usually pIC50 stands for the negative decadic logarithm of the IC50, by convention in mol/L. In the case of YGAVVNLRKTVVNFP, the pIC50 was 7.05 in [1] (DRB1 *1101); 7.44 in [2] (DRB5 *0101); 6.52 in assay [3] (DRB4 *0101); 3.82 in assay [4]; 4.87 in assay [5] (DRB1 *0101); 4.95 in assay [6] (DRBI *1302). The pIC50 in assay [7] is 4.29; in assay [8] (DRB1 *0701), 5.08; in assay [9] (DRBI *1501) it was 6.33; in [10] (DRB1 *0401) it was 5.38; in assay [11] (DRB1 *0405), less than 4.02.

On to RTITADTFRKLFRVY, for which the pIC50 in [2] (DRB5 *0101) was 7.03; in assay [12], 6.10; in assay [3] (DRB4 *0101), 5.81; in assay [5] (DRB1 *0101) it was 6.83; in assay [6] (DRBI *1302) it was 7.02; in assay [7] it was 6.17. Further, the negative logarithm of the IC50 (pIC50) in [9] (DRBI *1501) was 7.46; in [10] (DRB1 *0401), 5.98; in assay [11] (DRB1 *0405) it was 5.71.

For the compound VGGVYLLRRAGPRLGV, the negative logarithm of the IC50 (pIC50) in [1] was 7.17; in assay [2], 8.10; in assay [3] it was 4.51; in assay [4], 4.40; in assay [6], less than 4.81; in [7], 4.04. In addition, the pIC50 in assay [8] was 6.36; in assay [9], 8.21; in assay [11], 5.19.

On to VGGVYLLPARGPRLGV, for which the pIC50 in [1] is 6.16; in assay [2], 7.40; in assay [3], 4.72; in assay [4], 4.17; in assay [5] it was 7.92; in assay [6] it was 6.70. In addition, the negative logarithm of the IC50 (pIC50) in assay [7] was 4.74; in [8], 7.31; in assay [9] it was 8.19; in [11], 5.34.

For the compound `CC[C@H](C)[C@H](NC(=O)CNC(=O)[C@H](CC(C)C)NC(=O)[C@H](CC(C)C)NC(=O)[C@H](CCCNC(=N)N)NC(=O)[C@H](CO)NC(=O)[C@@H](NC(=O)[C@H](Cc1ccc(O)cc1)NC(=O)[C@@H]1CCCN1C(=O)[C@H](CO)NC(=O)CNC(=O)[C@@H](NC(=O)CN)C(C)C)C(C)C)C(=O)N[C@@H](CS)C(=O)N[C@@H](CC(C)C)C(=O)O`, the negative-log IC50 (pIC50) in assay [1] (DRB1 *1101) was 6.16; in assay [13], 5.58; in [4] it was 3.77; in [5] (DRB1 *0101), 7.72; in [6] (DRBI *1302) it was 6.02; in assay [7], 3.83. Also, the negative logarithm of the IC50 (pIC50) is 6.72 in assay [8] (DRB1 *0701), 7.34 in assay [9] (DRBI *1501), 5.80 in assay [10] (DRB1 *0401) and 5.38 in assay [11] (DRB1 *0405).

Take APPRLITDSRVLERY: the negative-log IC50 (pIC50) in [1] (DRB1 *1101) is 5.56; in [2] (DRB5 *0101), 6.16; in assay [13], 5.08; in assay [3] (DRB4 *0101), 5.65; in [4], 7.82; in [5] (DRB1 *0101), 4.99. Moreover, the negative logarithm of the IC50 (pIC50) in assay [6] (DRBI *1302) is 7.04; in [7], 6.15; in [8] (DRB1 *0701), 6.20; in assay [10] (DRB1 *0401) it was 5.18; in assay [11] (DRB1 *0405), 5.11.

For ELVSEFSRMARDPQ, the pIC50 in [1] (DRB1 *1101) is 5.34; in [13], 4.04; in assay [3] (DRB4 *0101), 6.01; in assay [5] (DRB1 *0101), 6.70; in [6] (DRBI *1302), less than 4.15; in assay [7], 4.80. Further, the pIC50 in assay [8] (DRB1 *0701) is 4.67; in [9] (DRBI *1501), 5.10; in assay [10] (DRB1 *0401), 6.92; in assay [11] (DRB1 *0405), 4.82.

In the case of GAPLGGAAAALAHGV, the pIC50 in assay [1] was 4.36; in assay [2], 4.89; in assay [3], 7.51; in assay [4], 4.09; in [6], 4.62; in [7] it was less than 4.29. Moreover, the negative-log IC50 (pIC50) in assay [8] is 4.50; in assay [9] it was 5.11; in assay [10] it was 5.26; in assay [11], less than 5.47.

In the case of GAPLAGAARALAHGV, the negative logarithm of the IC50 (pIC50) is 8.02 in assay [1]; 5.11 in assay [2]; 5.53 in assay [3]; 5.53 in assay [4]; 5.14 in assay [6]; less than 4.15 in assay [7]. The pIC50 is 5.09 in assay [8], 5.55 in [9], 4.40 in assay [10] and less than 4.88 in assay [11].

As to GAPLGGAARLLAHGV, the negative-log IC50 (pIC50) in assay [1] was 7.10; in [3], 5.59; in assay [4], 4.64; in assay [5], 6.40; in [6], 4.53; in [7], less than 4.29. In addition, the pIC50 in [8] was 4.24; in assay [9], 6.20; in assay [10], 4.82; in assay [11] it was less than 5.47.

HIEFTPTRTDTYACRV: the negative-log IC50 (pIC50) in [1] (DRB1 *1101) was no more than 3.70; in assay [2] (DRB5 *0101), no more than 3.70; in [12], less than 4.90; in assay [7] it was less than 5.15; in [10] (DRB1 *0401), 4.52; in assay [11] (DRB1 *0405) it was 5.00.

Take GAPLGGAARAAAHGV: the pIC50 in [1] is 5.44; in assay [2] it was 4.37; in assay [3] it was 4.38; in assay [4], 3.42; in [6], less than 4.63; in assay [7], less than 4.29. In addition, the pIC50 in [8] is 4.50; in assay [9], less than 5.06; in assay [10] it was 4.60; in [11], less than 5.47.

Regarding GAPLGGAARALAAGV, the negative logarithm of the IC50 (pIC50) was 7.35 in assay [1]; 5.08 in assay [2]; 5.41 in assay [3]; 4.63 in [4]; 4.63 in [6]; less than 4.29 in assay [7]. The pIC50 is 5.13 in [8], 5.24 in assay [9], 4.95 in [10] and less than 5.47 in assay [11].

As for EMLQNIFAIFRQDSS, the pIC50 is 4.43 in assay [1] (DRB1 *1101); 5.50 in [2] (DRB5 *0101); 5.01 in assay [13]; 6.79 in assay [3] (DRB4 *0101); 5.02 in assay [4]; 6.40 in assay [5] (DRB1 *0101). The negative-log IC50 (pIC50) in assay [6] (DRBI *1302) was 7.21; in [7] it was 6.14; in assay [8] (DRB1 *0701) it was 5.48; in assay [9] (DRBI *1501), 5.76; in assay [10] (DRB1 *0401), 6.16; in assay [11] (DRB1 *0405), 6.34.

Take VGGVYLAPRRGPRLGV: the negative-log IC50 (pIC50) in assay [1] was 7.46; in assay [2], 7.12; in assay [3], less than 4.38; in assay [4], 3.69; in assay [5], 6.13; in assay [6], less than 4.81. The pIC50 in [7] was less than 4.18; in assay [8] it was 6.06; in assay [9], 7.26; in [10], 4.47; in assay [11], less than 4.91.

On to HYLKAKEDSHTAWTI, for which the negative-log IC50 (pIC50) is less than 4.22 in assay [1] (DRB1 *1101); 4.71 in assay [2] (DRB5 *0101); 4.99 in assay [13]; 4.93 in assay [3] (DRB4 *0101); 4.15 in assay [4]; 6.63 in assay [5] (DRB1 *0101). The pIC50 in [6] (DRBI *1302) is 5.65; in assay [7] it was 4.45; in assay [8] (DRB1 *0701) it was 6.10; in assay [9] (DRBI *1501), 6.28; in assay [10] (DRB1 *0401), 6.26; in assay [11] (DRB1 *0405), 4.82.
